Among the data in patent publication US11173145B2, “Compounds useful as inhibitors of indoleamine 2,3-dioxygenase and/or tryptophan dioxygenase” (Board of Regents, The University of Texas System, priority 2017, dated 2021) are IC50 values, retold here.

Some results are limits rather than exact numbers.

One experiment deals with T1, IDO1 (Homo sapiens, UniProt P14902).
T1 construct: endogenous in cells; host or cells: HeLa cells (ATCC), IFNgamma-induced
Put plainly: IDO1 cell-based assay (HeLa cells, IFNgamma-induced, N-formylkynurenine/L-tryptophan by RFMS). As to conditions: 10 ng/mL IFNgamma, 24 hours. The method, boiled down: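 HeLa cells stimulated with 10 ng/mL IFNgamma and exposed to compound (0.5% DMSO final) for 24 h at 37 °C. Conditioned media deproteinized, then N-formylkynurenine and L-tryptophan quantified by RapidFire MS with deuterated tryptophan internal standard; IC50 by curve fitting. Viability checked by CellTiter-Glo.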

For the next experiment, the target named is T2, mouse IDO1 (Mus musculus, UniProt P28776).
T2 construct: The murine PANC02 pancreatic ductal adenocarcinoma cell line was routinely maintained in DMEM media; endogenous in cells; host or cells: PANC02 murine pancreatic ductal adenocarcinoma cells, induced with mouse IFNgamma
Put plainly: Mouse IDO1 cell-based assay (PANC02 cells, mouse IFNgamma-induced, N-formylkynurenine/L-tryptophan by RFMS). As to conditions: 30 ng/mL mouse IFNgamma, 48 hours. On the procedure: The murine PANC02 pancreatic ductal adenocarcinoma cell line was routinely maintained in DMEM media containing 10% FBS. Cells (3,000/well) were seeded onto a 384 well plate in 50 μl of media and incubated at 37° C., 5% CO2 overnight. Cell media was aspirated, fresh media containing 30 ng/mL mouse IFNgamma (Gibco Life Technologies, cat #PMC4031) was added, and cells were incubated in absence or presence of various concentrations of compounds (final 0.5% DMSO) for 48 hours at 37° C., 5% CO2. Aliquots of the cell conditioned media was removed from the cell plate, and mixed with equal volume of 200 mM ZnSO4 to precipitate media containing protein. Two volumes of acetonitrile were added by mixing, and samples were then centrifuged at 2250G for 20 minutes at 4° C. Aliquots of the supernatant were diluted 1:10 in 0.1% formic acid containing 3 μM of deuterated Tryptophan as an internal standard.
Samples were analyzed via RFMS to quantify N-Formyl Kynurenine (AUC) and L-tryptophan (AUC). A C18 cartridge was used with mobile phases of 0.1% Formic Acid and 80% ACN/0.1% Formic Acid under isocratic conditions. Dose-response curves were analyzed using IC50 regression curve fitting (GeneData Screener). Curves were plotted as percent of control and normalized by high controls without inhibitor (100%), and low controls (0%) containing 1 μM of epacadostat. Cell viability was also assessed using the Cell Titer Glo Kit (Promega) following manufacture recommendation.

T1 sequence (P14902 whole entry): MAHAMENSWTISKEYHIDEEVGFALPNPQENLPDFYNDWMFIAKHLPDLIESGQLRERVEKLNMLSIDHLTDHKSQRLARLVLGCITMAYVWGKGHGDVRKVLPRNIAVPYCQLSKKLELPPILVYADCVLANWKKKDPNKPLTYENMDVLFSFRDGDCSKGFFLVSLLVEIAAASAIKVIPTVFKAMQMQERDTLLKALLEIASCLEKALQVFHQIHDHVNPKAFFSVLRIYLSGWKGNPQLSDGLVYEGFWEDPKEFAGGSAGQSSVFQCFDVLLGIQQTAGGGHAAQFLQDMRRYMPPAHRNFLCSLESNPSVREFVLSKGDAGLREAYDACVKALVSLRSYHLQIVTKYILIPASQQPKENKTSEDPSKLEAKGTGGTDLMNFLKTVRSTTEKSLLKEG
T2 sequence (P28776 whole entry): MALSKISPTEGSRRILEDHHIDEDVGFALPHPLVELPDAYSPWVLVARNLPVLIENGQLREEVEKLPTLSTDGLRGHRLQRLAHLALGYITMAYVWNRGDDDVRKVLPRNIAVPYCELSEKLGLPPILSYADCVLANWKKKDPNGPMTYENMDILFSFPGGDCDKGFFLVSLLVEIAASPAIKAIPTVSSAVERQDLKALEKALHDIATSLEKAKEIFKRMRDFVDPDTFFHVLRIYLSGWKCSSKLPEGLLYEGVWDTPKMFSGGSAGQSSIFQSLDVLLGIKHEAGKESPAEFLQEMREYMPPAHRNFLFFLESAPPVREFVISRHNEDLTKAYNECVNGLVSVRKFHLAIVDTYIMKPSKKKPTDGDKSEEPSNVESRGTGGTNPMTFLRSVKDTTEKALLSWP

The IC50 is the point on the concentration scale where inhibition reaches its midpoint. Take `CCC(NC(=O)c1ccc(Cl)cc1)[C@H]1[C@@H]2C[C@@H](C(C(=O)OC)c3ccccc3)C[C@@H]21` (mixture of isomers) [Compound 202, methyl (S)-2-((1R,3S,5S, 6S)-6-((R)-1-(4-chlorobenzamido)propyl)bicyclo[3.1.0]hexan-3-yl)-2-phenylacetate and methyl (R)-2-((R, 3S, 5S, 6S)-6-((S)-1-(4-chlorobenzamido)propyl)bicyclo[3.1.0]hexan-3-yl)-2-phenylacetate]: the IC50 against IDO1 is 200 to 2000 nM; on mouse IDO1, 500 to 2000 nM.

In the case of `CCC(NC(=O)c1ccc(Cl)cc1)[C@H]1[C@@H]2C[C@@H](C(C(=O)OC)c3ccccc3)C[C@@H]21` (mixture of isomers) [Compound 203, methyl (S)-2-((R, 3R, 5S,6S)-6-((S)-1-(4-chlorobenzamido)propyl)bicyclo[3.1.0]hexan-3-yl)-2-phenylacetate and methyl (R)-2-((1R,3R,5S, 6S)-6-((R)-1-(4-chlorobenzamido)propyl)bicyclo[3.1.0]hexan-3-yl)-2-phenylacetate], the figures for the IC50 against IDO1 and on mouse IDO1 were 200 to 2000 nM and under 500 nM, respectively.

As for `CCC(NC(=O)c1ccc(Cl)cc1)[C@H]1[C@@H]2C[C@@H](NC(=O)c3ccccn3)C[C@@H]21` (stereo partly drawn) [Compound 117, N-((1R,3s,5S,6r)-6-(1-(4-chlorobenzamido)propyl)bicyclo[3.1.0]hexan-3-yl)picolinamide], the IC50 is under 200 nM on IDO1 and 2000 to 5000 nM on mouse IDO1.

`CCC(NC(=O)c1ccc(Cl)cc1)[C@H]1[C@@H]2C[C@@H](n3cnc4ccc(F)cc43)C[C@@H]21` (stereo partly drawn) [Compound 125] showed an IC50 against mouse IDO1 of under 500 nM.

As to `C[C@H](NC(=O)c1ccc(C#N)cc1)[C@H]1[C@@H]2C[C@@H](Oc3ncnc4ccc(F)cc34)C[C@@H]21` [Compound 130, 4-cyano-N-((R)-1-((1R,3S,5S,6r)-3-((6-fluoroquinazolin-4-yl)oxy)bicyclo[3.1.0]hexan-6-yl)ethyl)benzamide], the IC50 is under 200 nM against IDO1 and under 500 nM on mouse IDO1.

Turning to `C[C@@H](NC(=O)c1ccc(C#N)cc1)[C@H]1[C@@H]2C[C@@H](Oc3ncnc4ccc(F)cc34)C[C@@H]21` [Compound 131, 4-cyano-N-((S)-1-((1R,3R,5S,6r)-3-((6-fluoroquinazolin-4-yl)oxy)bicyclo[3.1.0]hexan-6-yl)ethyl)benzamide], the IC50 is under 200 nM on IDO1 and 500 to 2000 nM on mouse IDO1.

Take `CCC(NC(=O)c1ccc(Cl)cc1)[C@H]1[C@@H]2C[C@@H](NC(=O)c3ccc(F)cn3)C[C@@H]21` (stereo partly drawn) [Compound 144, N-((1R,3s,5S,6r)-6-(1-(4-chlorobenzamido)propyl)bicyclo[3.1.0]hexan-3-yl)-5-fluoropicolinamide]: the IC50 is under 200 nM against IDO1 and 500 to 2000 nM at mouse IDO1.

Take `CCC(NC(=O)c1ccc(Cl)cc1)[C@H]1[C@@H]2C[C@@H](NC(=O)c3cccnc3)C[C@@H]21` (stereo partly drawn) [Compound 145, N-((1R,3s,5S,6r)-6-(1-(4-chlorobenzamido)propyl)bicyclo[3.1.0]hexan-3-yl)nicotinamide]: the IC50 against IDO1 was under 200 nM; against mouse IDO1 it was over 5000 nM.

For `CCC(NC(=O)c1ccc(Cl)cc1)[C@H]1[C@@H]2C[C@@H](NC(=O)c3cncc(Cl)n3)C[C@@H]21` (stereo partly drawn) [Compound 150, 6-chloro-N-((1R,3s,5S,6r)-6-(1-(4-chlorobenzamido)propyl)bicyclo[3.1.0]hexan-3-yl)pyrazine-2-carboxamide], the figures for the IC50 on IDO1 and against mouse IDO1 were under 200 nM and 2000 to 5000 nM, respectively.

Take `CCC(NC(=O)c1ccc(Cl)cc1)[C@H]1[C@@H]2C[C@@H](n3nncc3C3CC3)C[C@@H]21` (stereo partly drawn) [Compound 153, 4-chloro-N-(1-((1R,3s,5S,6r)-3-(5-cyclopropyl-1H-1,2,3-triazol-1-yl)bicyclo[3.1.0]hexan-6-yl)propyl)benzamide]: the IC50 is under 200 nM on IDO1 and under 500 nM against mouse IDO1.

For the compound `CCC(NC(=O)c1ccc(Cl)cc1)[C@H]1[C@@H]2C[C@@H](NC(=O)c3nccc(C(F)(F)F)c3Cl)C[C@@H]21` (stereo partly drawn) [Compound 158, 3-chloro-N-((1R,3s,5S,6r)-6-(1-(4-chlorobenzamido)propyl)bicyclo[3.1.0]hexan-3-yl)-4-(trifluoromethyl)picolinamide], the IC50 is under 200 nM at IDO1 and 500 to 2000 nM at mouse IDO1.

In the case of `CCC(NC(=O)c1ccc(Cl)cc1)[C@H]1[C@@H]2C[C@@H](N3C(=O)c4ccccc4C3=O)C[C@@H]21` (stereo partly drawn) [Compound 161, 4-chloro-N-(1-((1R,3s,5S,6r)-3-(1,3-dioxoisoindolin-2-yl)bicyclo[3.1.0]hexan-6-yl)propyl)benzamide], the IC50 was under 200 nM against IDO1 and 500 to 2000 nM against mouse IDO1.

`CCC(NC(=O)c1ccc(Cl)cc1)[C@H]1[C@@H]2C[C@@H](n3ncc4ccc(F)cc43)C[C@@H]21` (stereo partly drawn) [Compound 162, 4-chloro-N-(1-((1R,3s,5S,6r)-3-(6-fluoro-1H-indazol-1-yl)bicyclo[3.1.0]hexan-6-yl)propyl)benzamide]: the IC50 at IDO1 was under 200 nM; against mouse IDO1, 500 to 2000 nM.

Turning to `CCC(NC(=O)c1ccc(Cl)cc1)[C@H]1[C@@H]2C[C@@H](n3cc4ccc(F)cc4n3)C[C@@H]21` (stereo partly drawn) [Compound 163, 4-chloro-N-(1-((1R,3s,5S,6r)-3-(6-fluoro-2H-indazol-2-yl)bicyclo[3.1.0]hexan-6-yl)propyl)benzamide], the results for the IC50 against IDO1 and against mouse IDO1 were under 200 nM and under 500 nM, respectively.

For `CCC(NC(=O)c1ccc(Cl)cc1)[C@H]1[C@@H]2C[C@@H](NC(=O)c3ccc(OC)cn3)C[C@@H]21` (stereo partly drawn) [Compound 164, N-((1R,3s,5S,6r)-6-(1-(4-chlorobenzamido)propyl)bicyclo[3.1.0]hexan-3-yl)-5-methoxypicolinamide], the IC50 against IDO1 was in the range of 200 to 2000 nM; at mouse IDO1, 500 to 2000 nM.

With `CCc1cnnn1[C@@H]1C[C@@H]2[C@H](C1)[C@H]2C(CC)NC(=O)c1ccc(Cl)cc1` (stereo partly drawn) [Compound 165, 4-chloro-N-(1-((1R,3s,5S,6r)-3-(5-ethyl-1H-1,2,3-triazol-1-yl)bicyclo[3.1.0]hexan-6-yl)propyl)benzamide], the results for the IC50 on IDO1 and at mouse IDO1 were under 200 nM and under 500 nM, respectively.

For `CCC(NC(=O)c1ccc(Cl)cc1)[C@H]1[C@@H]2C[C@@H](C(C#N)c3ccccc3)C[C@@H]21` (stereo partly drawn) [Compound 166, 4-chloro-N-(1-((1R,3s,5 S,6r)-3-(cyano(phenyl)methyl)bicyclo[3.1.0]hexan-6-yl)propyl) benzamide], the figures for the IC50 against IDO1 and against mouse IDO1 were under 200 nM and under 500 nM, respectively.

Compound `CCC(NC(=O)c1ccc(Cl)cc1)[C@H]1[C@@H]2C[C@@H](n3cnc4ccncc43)C[C@@H]21` (stereo partly drawn) [Compound 197, N-(1-((1R,3s,5S,6r)-3-(3H-imidazo[4,5-c]pyridin-3-yl)bicyclo[3.1.0]hexan-6-yl)propyl)-4-chlorobenzamide] gave an IC50 on mouse IDO1 of over 5000 nM.

The compound `CC[C@@H](NC(=O)c1ccc(Cl)cc1)[C@H]1[C@@H]2C[C@@H](n3cnc4ccc(F)cc43)C[C@@H]21` [Compound 247, 4-chloro-N—((R)-1-((1R,3S,5S, 6r)-3-(6-fluoro-1H-benzo[d]imidazol-1-yl)bicyclo[3.1.0]hexan-6-yl)propyl)benzamide] had an IC50 at mouse IDO1 of under 500 nM.

Compound `CC[C@H](NC(=O)c1ccc(Cl)cc1)[C@H]1[C@@H]2C[C@@H](n3cnc4ccc(F)cc43)C[C@@H]21` [Compound 248, 4-chloro-N—((S)-1-((1R,3S,5S,6r)-3-(6-fluoro-1H-benzo[d]imidazol-1-yl)bicyclo[3.1.0]hexan-6-yl)propyl)benzamide] showed an IC50 against mouse IDO1 of under 500 nM.

Turning to `CC[C@@H](NC(=O)N1CCC(F)(F)CC1)[C@H]1[C@@H]2C[C@@H](n3cnc4cc(F)c(F)cc43)C[C@@H]21` [Compound 355, N-((R)-1-((1R,3S,5S,6r)-3-(5,6-difluoro-1H-benzo[d]imidazol-1-yl)bicyclo[3.1.0]hexan-6-yl)propyl)-4,4-difluoropiperidine-1-carboxamide], at IDO1, the IC50 was under 200 nM.

With `CC[C@@H](NC(=O)N1CCOCC1)[C@H]1[C@@H]2C[C@@H](n3cnc4cc(F)c(F)cc43)C[C@@H]21` [Compound 356, N-((R)-1-((1R,3S,5S,6r)-3-(5,6-difluoro-1H-benzo[d]imidazol-1-yl)bicyclo[3.1.0]hexan-6-yl)propyl)morpholine-4-carboxamide], the IC50 against IDO1 lay within 2000 to 5000 nM.

Turning to `CC[C@@H](NC(=O)NC1CC1)[C@H]1[C@@H]2C[C@@H](n3cnc4cc(F)c(F)cc43)C[C@@H]21` [Compound 357, 1-cyclopropyl-3-((R)-1-((1R,3S,5S,6r)-3-(5,6-difluoro-1H-benzo[d]imidazol-1-yl)bicyclo[3.1.0]hexan-6-yl)propyl)urea], at IDO1, the IC50 was 200 to 2000 nM.
